Experimental data as given in ChEMBL document CHEMBL4177526, “Discovery and structure activity relationship of the first potent cryptosporidium FIKK kinase inhibitor” (Bioorg Med Chem, 2017).

Tests used:
[1] = molecular target: Homeodomain-interacting protein kinase 1 (Homo sapiens) (UniProt Q86Z02); assay: Inhibition of human HIPK1 (158 to 555 residues) assessed as residual activity at 500 nM in presence of 33P-ATP by filter binding assay relative to control
[2] = molecular target: Serine/threonine-protein kinase Pink1, mitochondrial (Tribolium castaneum) (UniProt D6WMX4); assay: Inhibition of Tribolium castaneum PINK1 (1 to 570 residues) assessed as residual activity at 500 nM in presence of 33P-ATP by scintillation counting method relative to control
[3] = molecular target: Protein kinase C alpha type (Homo sapiens) (UniProt P17252); assay: Inhibition of human PKCalpha (1 to 672 residues) assessed as residual activity at 500 nM in presence of 33P-ATP by filter binding assay relative to control
[4] = molecular target: Mitogen-activated protein kinase kinase kinase 1 (Homo sapiens) (UniProt Q13233); assay: Inhibition of human MEKK1 (877 to 1563 residues) assessed as residual activity at 500 nM in presence of 33P-ATP by filter binding assay relative to control
[5] = molecular target: Eukaryotic elongation factor 2 kinase (Homo sapiens) (UniProt O00418); assay: Inhibition of human EF2K (2 to 725 residues) assessed as residual activity at 500 nM in presence of 33P-ATP by filter binding assay relative to control
Sequence of Eukaryotic elongation factor 2 kinase (Homo sapiens) (O00418 whole entry, the tested form may be a part): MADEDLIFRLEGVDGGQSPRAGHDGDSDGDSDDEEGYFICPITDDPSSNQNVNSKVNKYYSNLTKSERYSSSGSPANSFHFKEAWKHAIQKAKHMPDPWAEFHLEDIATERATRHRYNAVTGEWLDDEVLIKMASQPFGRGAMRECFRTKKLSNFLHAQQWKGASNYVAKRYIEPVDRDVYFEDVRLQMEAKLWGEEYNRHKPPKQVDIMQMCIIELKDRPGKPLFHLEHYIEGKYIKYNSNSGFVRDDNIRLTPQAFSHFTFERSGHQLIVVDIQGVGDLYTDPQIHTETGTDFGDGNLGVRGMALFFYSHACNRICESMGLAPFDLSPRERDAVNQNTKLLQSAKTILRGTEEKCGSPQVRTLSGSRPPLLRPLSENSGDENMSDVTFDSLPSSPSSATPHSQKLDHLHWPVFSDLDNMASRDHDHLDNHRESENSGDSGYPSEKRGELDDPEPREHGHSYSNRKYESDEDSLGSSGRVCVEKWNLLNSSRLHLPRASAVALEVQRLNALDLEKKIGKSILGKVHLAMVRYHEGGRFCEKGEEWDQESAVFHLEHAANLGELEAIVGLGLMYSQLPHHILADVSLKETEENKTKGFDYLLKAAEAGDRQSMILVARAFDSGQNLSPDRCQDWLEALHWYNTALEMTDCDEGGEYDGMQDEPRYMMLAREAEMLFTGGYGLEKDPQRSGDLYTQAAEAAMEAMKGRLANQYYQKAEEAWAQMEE

[6] = molecular target: Insulin-like growth factor 1 receptor (Homo sapiens) (UniProt P08069); assay: Inhibition of human IGF1R (954 to 1367 residues) assessed as residual activity at 500 nM in presence of 33P-ATP by filter binding assay relative to control
Sequence of Insulin-like growth factor 1 receptor (Homo sapiens) (P08069 31-736 limits assumed): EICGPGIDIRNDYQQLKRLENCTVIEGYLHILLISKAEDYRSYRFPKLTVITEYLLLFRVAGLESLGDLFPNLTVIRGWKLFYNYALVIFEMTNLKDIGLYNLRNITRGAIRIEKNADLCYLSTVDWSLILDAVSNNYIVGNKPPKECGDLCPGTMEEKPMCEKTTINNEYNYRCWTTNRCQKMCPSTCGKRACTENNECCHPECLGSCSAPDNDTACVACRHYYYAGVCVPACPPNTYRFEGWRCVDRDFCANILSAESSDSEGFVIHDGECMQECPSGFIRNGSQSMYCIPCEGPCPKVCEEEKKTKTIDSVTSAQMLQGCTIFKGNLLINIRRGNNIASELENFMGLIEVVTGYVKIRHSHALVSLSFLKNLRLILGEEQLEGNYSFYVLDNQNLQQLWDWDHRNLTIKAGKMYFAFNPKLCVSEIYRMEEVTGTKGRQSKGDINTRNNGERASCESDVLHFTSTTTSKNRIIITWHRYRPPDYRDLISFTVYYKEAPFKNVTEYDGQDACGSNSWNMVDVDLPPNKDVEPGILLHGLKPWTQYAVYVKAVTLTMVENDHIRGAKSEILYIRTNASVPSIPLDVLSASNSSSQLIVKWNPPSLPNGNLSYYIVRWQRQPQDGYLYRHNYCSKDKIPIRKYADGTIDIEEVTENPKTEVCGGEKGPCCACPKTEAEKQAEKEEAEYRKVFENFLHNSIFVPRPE
Sequence of Insulin-like growth factor 1 receptor (Homo sapiens) (P08069 741-1367 limits assumed): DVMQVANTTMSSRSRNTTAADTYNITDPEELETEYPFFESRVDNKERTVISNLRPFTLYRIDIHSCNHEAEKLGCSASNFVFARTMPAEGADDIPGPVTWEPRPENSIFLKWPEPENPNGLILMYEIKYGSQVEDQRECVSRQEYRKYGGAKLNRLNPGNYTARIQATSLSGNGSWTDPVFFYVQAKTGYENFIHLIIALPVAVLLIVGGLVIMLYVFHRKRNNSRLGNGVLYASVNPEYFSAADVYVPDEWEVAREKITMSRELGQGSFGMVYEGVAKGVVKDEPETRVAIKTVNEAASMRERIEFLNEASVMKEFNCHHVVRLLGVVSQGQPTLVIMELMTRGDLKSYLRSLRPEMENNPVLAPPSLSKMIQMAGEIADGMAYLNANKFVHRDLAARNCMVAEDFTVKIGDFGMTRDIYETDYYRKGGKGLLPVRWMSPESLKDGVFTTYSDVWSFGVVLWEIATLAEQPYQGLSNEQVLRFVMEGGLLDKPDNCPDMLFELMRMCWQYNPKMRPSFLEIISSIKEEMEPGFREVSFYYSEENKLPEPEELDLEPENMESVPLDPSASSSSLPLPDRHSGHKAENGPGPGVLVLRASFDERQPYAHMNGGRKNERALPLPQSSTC

[7] = molecular target: CDK9/cyclin T1 (Homo sapiens) (UniProt O60563+P50750); assay: Inhibition of human CDK9 (1 to 372 residues)/cyclinT1 (1 to 726 residues) assessed as residual activity at 500 nM in presence of 33P-ATP by filter binding assay relative to control; type: protein-complex assay
[8] = molecular target: AMPK alpha1/beta2/gamma1 (Homo sapiens) (UniProt O43741+P54619+Q13131); assay: Inhibition of human AMPKalpha1 (11 to 559 residues)/beta2 (1 to 272 residues)/gamma1 (1 to 331 residues) assessed as residual activity at 500 nM in presence of 33P-ATP by filter binding assay relative to control; type: protein-complex assay
[9] = molecular target: Serine/threonine-protein kinase TAO1 (Homo sapiens) (UniProt Q7L7X3); assay: Inhibition of human TAO1 (1 to 356 residues) assessed as residual activity at 500 nM in presence of 33P-ATP by filter binding assay relative to control
[10] = molecular target: MAP kinase-activated protein kinase 5 (Homo sapiens) (UniProt Q8IW41); assay: Inhibition of human PRAK (1 to 471 residues) assessed as residual activity at 500 nM in presence of 33P-ATP by filter binding assay relative to control
[11] = molecular target: Tyrosine-protein kinase Yes (Homo sapiens) (UniProt P07947); assay: Inhibition of human YES1 (1 to 543 residues) assessed as residual activity at 500 nM in presence of 33P-ATP by filter binding assay relative to control
Sequence of Tyrosine-protein kinase Yes (Homo sapiens) (P07947 2-543 limits assumed): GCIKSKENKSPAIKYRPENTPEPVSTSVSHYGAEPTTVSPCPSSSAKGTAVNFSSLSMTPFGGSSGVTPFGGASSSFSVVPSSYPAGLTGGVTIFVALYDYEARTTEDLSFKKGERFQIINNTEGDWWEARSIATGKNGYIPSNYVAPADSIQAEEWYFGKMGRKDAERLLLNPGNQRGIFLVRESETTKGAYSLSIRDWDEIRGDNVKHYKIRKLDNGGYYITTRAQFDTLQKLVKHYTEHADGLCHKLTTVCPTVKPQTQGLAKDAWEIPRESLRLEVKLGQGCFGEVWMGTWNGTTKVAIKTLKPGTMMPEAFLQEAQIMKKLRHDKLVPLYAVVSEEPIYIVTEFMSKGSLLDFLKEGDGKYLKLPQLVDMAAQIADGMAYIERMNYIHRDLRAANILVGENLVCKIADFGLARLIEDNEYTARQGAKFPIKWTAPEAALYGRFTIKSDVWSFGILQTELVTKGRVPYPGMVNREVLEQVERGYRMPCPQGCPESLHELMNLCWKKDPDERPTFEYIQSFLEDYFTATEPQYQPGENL

[12] = Inhibition of recombinant Cryptosporidium parvum FIKK using RRRAPSFYRK peptide as substrate by NADH coupled LDH-PK ATPase assay
[13] = molecular target: serine/threonine-protein kinase D1 (Homo sapiens) (UniProt Q15139); assay: Inhibition of human PKD1 (2 to 912 residues) assessed as residual activity at 500 nM in presence of 33P-ATP by filter binding assay relative to control
[14] = molecular target: Dual specificity testis-specific protein kinase 1 (Homo sapiens) (UniProt Q15569); assay: Inhibition of human TESK1 (1 to 345 residues) assessed as residual activity at 500 nM in presence of 33P-ATP by filter binding assay relative to control
[15] = molecular target: Proto-oncogene tyrosine-protein kinase Src (Homo sapiens) (UniProt P12931); assay: Inhibition of human SRC (1 to 536 residues) assessed as residual activity at 500 nM in presence of 33P-ATP by filter binding assay relative to control
[16] = molecular target: Phosphorylase b kinase gamma catalytic chain, skeletal muscle/heart isoform (Homo sapiens) (UniProt Q16816); assay: Inhibition of human PHKgamma1 (2 to 297 residues) assessed as residual activity at 500 nM in presence of 33P-ATP by filter binding assay relative to control
Sequence of Phosphorylase b kinase gamma catalytic chain, skeletal muscle/heart isoform (Homo sapiens) (Q16816 whole entry, looked up, the tested form may be a part, canonical isoform): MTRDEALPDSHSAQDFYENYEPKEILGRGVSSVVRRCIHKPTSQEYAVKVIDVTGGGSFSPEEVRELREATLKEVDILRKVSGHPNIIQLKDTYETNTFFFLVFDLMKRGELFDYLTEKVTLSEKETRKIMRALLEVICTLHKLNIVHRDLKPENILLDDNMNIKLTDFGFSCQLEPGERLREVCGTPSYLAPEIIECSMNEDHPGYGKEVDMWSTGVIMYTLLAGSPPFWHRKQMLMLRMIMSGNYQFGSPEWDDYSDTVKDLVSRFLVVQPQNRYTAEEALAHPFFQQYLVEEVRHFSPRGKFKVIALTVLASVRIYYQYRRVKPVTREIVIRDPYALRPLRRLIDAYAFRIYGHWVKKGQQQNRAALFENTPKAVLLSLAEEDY

[17] = molecular target: Mitogen-activated protein kinase 11 (Homo sapiens) (UniProt Q15759); assay: Inhibition of human p38beta (1 to 364 residues) assessed as residual activity at 500 nM in presence of 33P-ATP by filter binding assay relative to control
[18] = molecular target: 3-phosphoinositide-dependent protein kinase 1 (Homo sapiens) (UniProt O15530); assay: Inhibition of human PDK1 (52 to 556 residues) assessed as residual activity at 500 nM in presence of 33P-ATP by filter binding assay relative to control
Sequence of 3-phosphoinositide-dependent protein kinase 1 (Homo sapiens) (O15530 whole entry, the tested form may be a part): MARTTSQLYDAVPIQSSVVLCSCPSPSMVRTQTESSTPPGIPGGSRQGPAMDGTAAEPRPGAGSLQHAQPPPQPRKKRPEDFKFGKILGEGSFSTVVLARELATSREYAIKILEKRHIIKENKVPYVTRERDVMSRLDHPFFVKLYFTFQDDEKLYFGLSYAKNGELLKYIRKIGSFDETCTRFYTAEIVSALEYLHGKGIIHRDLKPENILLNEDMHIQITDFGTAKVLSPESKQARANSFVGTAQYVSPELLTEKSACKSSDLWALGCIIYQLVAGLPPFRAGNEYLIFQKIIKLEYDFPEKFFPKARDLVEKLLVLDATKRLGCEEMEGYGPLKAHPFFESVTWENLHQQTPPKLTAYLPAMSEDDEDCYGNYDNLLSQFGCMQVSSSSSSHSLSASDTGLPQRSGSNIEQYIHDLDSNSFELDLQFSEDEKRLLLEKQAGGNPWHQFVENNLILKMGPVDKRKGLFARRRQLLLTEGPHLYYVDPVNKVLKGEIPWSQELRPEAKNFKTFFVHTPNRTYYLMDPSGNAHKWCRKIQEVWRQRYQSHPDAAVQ

[19] = molecular target: Rho-associated protein kinase 2 (Homo sapiens) (UniProt O75116); assay: Inhibition of human ROCK2 (2 to 543 residues) assessed as residual activity at 500 nM in presence of 33P-ATP by filter binding assay relative to control
[20] = molecular target: Serine/threonine-protein kinase pim-3 (Homo sapiens) (UniProt Q86V86); assay: Inhibition of human PIM3 (2 to 326 residues) assessed as residual activity at 500 nM in presence of 33P-ATP by filter binding assay relative to control
[21] = molecular target: Serine/threonine-protein kinase WNK1 (Homo sapiens) (UniProt Q9H4A3); assay: Inhibition of human WNK1 (1 to 661 residues) assessed as residual activity at 500 nM in presence of 33P-ATP by filter binding assay relative to control
[22] = molecular target: MAP kinase-activated protein kinase 3 (Homo sapiens) (UniProt Q16644); assay: Inhibition of human MAPKAPK3 (2 to 382 residues) assessed as residual activity at 500 nM in presence of 33P-ATP by filter binding assay relative to control
Sequence of MAP kinase-activated protein kinase 3 (Homo sapiens) (Q16644 whole entry, looked up, the tested form may be a part): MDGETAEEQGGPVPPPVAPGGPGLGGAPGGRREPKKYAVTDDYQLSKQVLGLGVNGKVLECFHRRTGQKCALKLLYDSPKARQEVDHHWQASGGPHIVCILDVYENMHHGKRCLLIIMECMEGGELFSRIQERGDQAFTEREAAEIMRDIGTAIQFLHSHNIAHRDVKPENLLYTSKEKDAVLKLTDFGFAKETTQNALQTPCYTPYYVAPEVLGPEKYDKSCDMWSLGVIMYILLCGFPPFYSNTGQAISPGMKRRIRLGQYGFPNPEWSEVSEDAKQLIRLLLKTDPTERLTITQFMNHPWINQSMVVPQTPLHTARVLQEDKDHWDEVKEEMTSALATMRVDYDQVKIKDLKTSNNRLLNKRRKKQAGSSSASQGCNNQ

[23] = molecular target: Discoidin domain-containing receptor 2 (Homo sapiens) (UniProt Q16832); assay: Inhibition of human DDR2 (467 to 854 residues) assessed as residual activity at 500 nM in presence of 33P-ATP by filter binding assay relative to control
[24] = molecular target: Serine/threonine-protein kinase MARK2 (Homo sapiens) (UniProt Q7KZI7); assay: Inhibition of human MARK2 (2 to 691 residues) assessed as residual activity at 500 nM in presence of 33P-ATP by filter binding assay relative to control
Sequence of Serine/threonine-protein kinase MARK2 (Homo sapiens) (Q7KZI7 whole entry, the tested form may be a part): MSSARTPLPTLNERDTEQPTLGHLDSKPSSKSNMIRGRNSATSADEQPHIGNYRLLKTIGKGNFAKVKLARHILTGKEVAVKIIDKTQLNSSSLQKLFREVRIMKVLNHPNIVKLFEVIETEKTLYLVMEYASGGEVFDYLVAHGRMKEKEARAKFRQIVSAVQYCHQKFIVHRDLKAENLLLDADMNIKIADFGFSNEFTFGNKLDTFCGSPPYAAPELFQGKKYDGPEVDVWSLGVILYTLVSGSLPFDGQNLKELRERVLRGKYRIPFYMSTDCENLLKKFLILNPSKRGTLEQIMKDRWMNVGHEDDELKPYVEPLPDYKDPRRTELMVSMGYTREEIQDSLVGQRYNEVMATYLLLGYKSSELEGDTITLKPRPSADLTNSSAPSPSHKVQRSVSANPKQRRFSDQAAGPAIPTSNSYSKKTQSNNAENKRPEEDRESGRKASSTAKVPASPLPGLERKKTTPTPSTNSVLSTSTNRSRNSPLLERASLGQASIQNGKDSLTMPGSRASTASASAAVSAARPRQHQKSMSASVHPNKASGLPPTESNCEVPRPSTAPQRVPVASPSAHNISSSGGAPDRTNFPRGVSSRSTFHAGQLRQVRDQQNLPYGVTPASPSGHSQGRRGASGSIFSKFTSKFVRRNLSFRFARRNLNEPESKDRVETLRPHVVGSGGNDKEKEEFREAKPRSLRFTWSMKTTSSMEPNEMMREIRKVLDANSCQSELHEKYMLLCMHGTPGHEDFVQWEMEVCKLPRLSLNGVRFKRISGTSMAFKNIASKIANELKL

[25] = molecular target: Serine/threonine-protein kinase ULK2 (Homo sapiens) (UniProt Q8IYT8); assay: Inhibition of human ULK2 (1 to 1036 residues) assessed as residual activity at 500 nM in presence of 33P-ATP by filter binding assay relative to control

Compound: Cc1cccc(-c2nc(N)sc2-c2ccc3ncccc3n2)c1
- Activity [1]: 106%
- Activity [2]: 119%
- Activity [3]: 112%
- Activity [4]: 119%
- Activity [5]: 115%
- Activity [6]: 104%
- Activity [7]: 106%
- Activity [8]: 120%
- Activity [9]: 99%
- Activity [10]: 105%
- Activity [11]: 53%
- IC50 [12]: 200 pM
- Activity [13]: 9%
- Activity [14]: 87%
- Activity [15]: 105%
- Activity [16]: 107%
- Activity [17]: 80%
- Activity [18]: 118%
- Activity [19]: 112%
- Activity [20]: 91%
- Activity [21]: 107%
- Activity [22]: 100%
- Activity [23]: 91%
- Activity [24]: 134%
- Activity [25]: 118%
